According to patent publication EP0121856A2, “Use of pyrazolone derivatives against the growth of tumour cells and their metastases, medicaments therefor and their preparation” (BAYER AG, priority 1983, dated 1984):

How the values were obtained:
B-16a Tumorzellen [1] = test: partial metastasis model: tail vein injection of B-16a tumour cells, oral treatment 3 days before and 2 days after tumour injection (Beispiel 2 and 3); type: in vivo, C57BL/6J-Mäuse; conditions: for Metastasenpunkte: score 1-10, mean ± S, n = 10; for Metastasenindex: treated / control points
Procedure: (§1) Syngeneische C57BL/6J-Mäuse wurden während eines Zeitraumes von drei Tagen mit 0,005 mg/kg bis 5 mg/kg der beiden Substanzen in 0,2 ml 0,5 % Tylose peroral behandelt. Kontrolltiere erhielten täglich 0,2 ml 0,5 % Tylose. Am vierten Tag wurde den vorbehandelten Mäusen und Kontrollmäusen ein Suspension von 5 x 10^4 B-16a Tumorzellen über die Schwanzvene injiziert. Die Kontrollmäuse und die behandelten Mäuse wurden unter identischen Bedingungen der Temperatur, Lichteinwirkungsdauer, Ernährung etc. gehalten. Die Mäuse wurden 24 Tage nach erfolgter Schwanzvenen-Injektion getötet, und ihre Lungengewebe wurden untersucht. Der Grad der Metastasierung wurde nach Zahl und Größe der makroskopisch sichtbaren Metastasen mit Punktzahlen von 1 - 10 bewertet, welche die Relation zwischen Metastasenbedeckter und - freier Organfläche ausdrücken. Dabei werden die Punktzahlen nach folgenden Rahmenkriterien vergeben: 1 = 1 - 2 gerade erkennbare Metastasen, 5 = etwa 50 % der Organoberfläche ist von Metastasen bedeckt, 10 = fast keine normale Organoberfläche sichtbar.
5 mg des jeweiligen Pyrazolonderivats wurden in 0,5 % Ty-lose aufgenommen und dann durch Behandlung mit Ultraschall (30 sec) gelöst. Die endgültige Konzentration der Substanzen wurde durch Verdünnung der Lösungen mit 0,5 % Tylose eingestellt.
(§2) Syngeneische C57BL/6J-Mäuse wurden während eines Zeitraumes von drei Tagen vor der Tumorinjektion und 2 Tagen nach der Tumorinjektion täglich mit 0,005 mg/kg bis 5 mg/kg der beiden Substanzen in 0,2 ml 0,5 % Tylose peroral behandelt. Kontrolltiere erhielten 0,2 ml 0,5 % Tylose. Am vierten Tag wurde den. vorbehandelten Mäusen und Kontrollmäusen eine Suspension von 5 x 10^4 B-16a Tumorzellen über die Schwanzvene injiziert.
20 mg des jeweiligen Pyrazolonderivats wurden in 0,5 % Tylose aufgenommen und dann durch Behandlung mit Ultraschall (30 sec) gelöst. Die endgültige Konzentration der Substanzen wurde durch Verdünnung der Lösungen mit 0,5 % Tylose eingestellt.
as §2, with “Syngeneische Tiere” for “Syngeneische C57BL/6J-Mäuse”, “mit 2 mg” for “mit 0,005 mg/kg”, “bis 200” for “bis 5”, “der” for “der beiden”, “wurde den” for “wurde den.”, “und Kontrolltieren” for “und Kontrollmäusen”

[2] = antithrombotic effect (thrombosis prophylaxis) compared with Nafazatrom; type: in vivo; conditions: for antithrombotischer Effekt: at 100-fold dose increase compared with Nafazatrom
B-16a Tumorzellen [3] = test: partial metastasis model: tail vein injection of B-16a tumour cells, oral pretreatment for three days (Beispiel 1); type: in vivo, C57BL/6J-Mäuse; conditions: 3 days before tail vein injection; for Metastasenpunkte: lungs 24 days after injection, score 1-10, mean ± S, n = 10; for Metastasenindex: treated group points / control group points
Procedure: Es wurden dieselben Tumor-Zellinien wie in EP-A 0 062 319 verwendet und auf die gleiche Weise in vivo gehalten. ;
Tumorzellen wurden dann aseptisch aus den Wirtsmäusen entnommen und unter Anwendung sequenzieller Collagenase-Verdauung dispergiert, wie unten beschrieben. Die entnommenen Tumoren wurden in Würfel (4 x 4 mm) zerteilt, und das gewürfelte Gewebe wurde auf 6 bis 8 sterile Polycarbonat-Erlenmeyerkolben aufgeteilt (etwa 500 mg/Kolben). Ein Anteil von 10 ml einer "Tumordispersionslösung" (TDS) wurde in jeden Kolben hinzugefügt.
Das gewürfelte Gewebe in der TDS wurde dann unter Luft in einem Dubnoff-Stoffwechsel-Schüttler (90 Schwingungen/min) dispergiert (30 min; 37°C). Die überstände wurden durch ein Seihtuch in sterile 50 ml-Rundboden-Zentrifugenröhrchen auf Polycarbonat gesammelt und 10 min (25°C) mit 900 U/min(100 g) in einem Sorvall SS-34 -Rotor zentrifugiert. Nach dem Zentrifugieren wurde die überstehende Fraktion verworfen. Das erhaltene zelluläre Material (Pellets) wurde zweimal mit MEM-Lösung gewaschen, wieder in MEM suspendiert und bei 4°C gehalten.
Zu dem verbleibenden gewürfelten Gewebe wurde ein Anteil von 10 ml TDS hinzugefügt, und das Gewebe wurde in einem Stoffwechselschüttler inkubiert, wie oben beschrieben, außer daß die Zeitdauer 60 min betrug. Das Zentrifugieren wurde wiederholt, und die wieder suspendierten Zellen wurden vereinigt.
(§3) Wie bereits weiter oben festgestellt wurde, ist die Metastase eine einzelne Erscheinung, die durch eine Reihe komplizierter Vorgänge verursacht wird. Gegenwärtig finden zwei "Modell"-Systeme für die Untersuchung der in vivo-Metastase verbreitete Anwendung. Das erste Modellsystem umfaßt die subkutante Injektion der Tumorzellen in das Tier. Die subkutante Injektion der Tumorzellen und anschließende Entwicklung eines Primärtumors, gefolgt von spontaner Metastase, wird als "volle" Metastase betrachtet. Ein anderes Modellsystem umfaßt die Injektion der Tumorzellen durch die Schwanzvene. In Anbetracht der Komplexität der Metastase gilt die Schwanzvenen-Injektion nur als partielles Modellsystem, da es nur die Vorgänge während des letzten Teils der Metastase wiedergibt. Das Schwanzvenen-Modellsystem gilt jedoch andererseits als außerordentlich günstig im Hinblick auf eine Standardisierung der Versuchsbedindungen Lvgl. "Methods in Cancer Research", Kapitel VII, Academic Press, Inc., 19787.
5 mg des jeweiligen Pyrazolonderivats wurden in 0,5 % Tylose aufgenommen und dann durch Behandlung mit Ultraschall (30 sec) gelöst. Die endgültige Konzentration der Substanzen wurde durch Verdünnung der Lösungen mit 0,5 % Tylose eingestellt.
as §1

B-16a-Zellen = test: full metastasis model: subcutaneous injection of B-16a cells, oral treatment for 27 days, metastatic lung nodules (Beispiel 4); type: in vivo, C57BL/6J-Mäuse; conditions: for Metastasenpunkte: lungs at 28 days; for Metastasenindex: treated / control points
From the text: as §3
Die Wirkung der Verabreichung der Pyrazolon-Verbindungen über einen längeren Zeitraum hinweg auf die Zahl der'metastatischen Lungen-Kolonien des B-16a Melanoms wurde wie nachstehend für Verbindung A beschrieben bestimmt.
10 mg Verbindung A wurden in 0,5 % Tylose aufgenommen und dann durch Behandlung mit Ultraschall (30 sec) gelöst. Die endgültige Konzentration der Substanz wurde durch Verdünnung der Lösung mit 0,5 % Tylose eingestellt. Die Substanz wurde jeden Tag neu gelöst.
Syngeneische C57BL/6J-Mäusen wurde eine Suspension von 1,0 x 10^5 B-16a-Zellen subkutan injiziert, die wie vorstehend beschrieben hergestellt wurde. Vom Tage nach der Tumorzell-Injektion ab erhielten die Mäuse 27 Tage peroral eine tägliche Einzeldosis von 0 bis 100 mg/kg der Pyrazolon-Verbindung. Die Kontroll-Mäuse und die behandelten Mäuse wurden unter identischen Bedingungen der Temperatur, Lichteinwirkungsdauer, Ernährung etc. gehalten. Die Mäuse wurden nach 28 Tagen getötet und die Zahl und Größe der metastatischen Knötchen in der Lunge bestimmt.

[4] = 0,5 mg/kg peroral daily for 27 days after s.c. tumour cell injection
[5] = 5 mg/kg peroral daily for 27 days after s.c. tumour cell injection
[6] = 25 mg/kg peroral daily for 27 days after s.c. tumour cell injection
[7] = 50 mg/kg peroral daily for 27 days after s.c. tumour cell injection
[8] = 75 mg/kg peroral daily for 27 days after s.c. tumour cell injection
[9] = 100 mg/kg peroral daily for 27 days after s.c. tumour cell injection

COc1cc(N2N=C(N)CC2=O)ccc1C [Verbindung E]
Metastasenpunkte (B-16a Tumorzellen [1]; 2 mg/kg peroral daily): 2,7±1,7 | Metastasenindex (B-16a Tumorzellen [1]; 2 mg/kg peroral daily): 0,66 | Metastasenpunkte (B-16a Tumorzellen [1]; 20 mg/kg peroral daily): 2,5±1,0 | Metastasenindex (B-16a Tumorzellen [1]; 20 mg/kg peroral daily): 0,61 | Metastasenpunkte (B-16a Tumorzellen [1]; 200mg/kg peroral daily): 2,7±1,5 | Metastasenindex (B-16a Tumorzellen [1]; 200mg/kg peroral daily): 0,66

O=C1CC(Cc2ccccc2)=NN1CCOc1ccc2ccccc2c1 [3-Benzyl-]
antithrombotischer Effekt [2]: kein antithrombotischer Effekt feststellbar

CC1=NN(Cc2ccoc2)C(=O)C1 [Verbindung C]
Metastasenpunkte (B-16a Tumorzellen [1]; 0,05 mg/kg peroral daily): 4,3±1,7 | Metastasenpunkte (B-16a Tumorzellen [1]; 0,5 mg/kg peroral daily): 4,7±2,1 | Metastasenindex (B-16a Tumorzellen [1]; 0,05 mg/kg peroral daily): 0,72 | Metastasenindex (B-16a Tumorzellen [1]; 0,5 mg/kg peroral daily): 0,78 | Metastasenpunkte (B-16a Tumorzellen [1]; 0,005 mg/kg peroral daily): 5,2±2,0 | Metastasenpunkte (B-16a Tumorzellen [1]; 5 mg/kg peroral daily): 5,3±2,0 | Metastasenindex (B-16a Tumorzellen [1]; 0,005 mg/kg peroral daily): 0,87 | Metastasenindex (B-16a Tumorzellen [1]; 5 mg/kg peroral daily): 0,88

CC1=NN(C(C)c2ccsc2)C(=O)C1 (stereo not shown) [Verbindung D]
Metastasenpunkte (B-16a Tumorzellen [1]; 0,05 mg/kg peroral daily): 3,8±1,8 | Metastasenpunkte (B-16a Tumorzellen [1]; 0,5 mg/kg peroral daily): 3,6±1,7 | Metastasenindex (B-16a Tumorzellen [1]; 0,05 mg/kg peroral daily): 0,63 | Metastasenindex (B-16a Tumorzellen [1]; 0,5 mg/kg peroral daily): 0,60 | Metastasenpunkte (B-16a Tumorzellen [1]; 0,005 mg/kg peroral daily): 4,7±1,9 | Metastasenpunkte (B-16a Tumorzellen [1]; 5 mg/kg peroral daily): 3,8±1,4 | Metastasenindex (B-16a Tumorzellen [1]; 0,005 mg/kg peroral daily): 0,78 | Metastasenindex (B-16a Tumorzellen [1]; 5 mg/kg peroral daily): 0,63

CCCC1=NN(CCOc2ccc3ccccc3c2)C(=O)C1 [3-n-Propyl-]
antithrombotischer Effekt [2]: kein antithrombotischer Effekt feststellbar

CC(C)C1=NN(CCOc2ccc3ccccc3c2)C(=O)C1 [3-Isopropyl-]
antithrombotischer Effekt [2]: kein antithrombotischer Effekt feststellbar

CC1=NN(CCOc2ccc3ccccc3c2)C(=O)C1C (stereo not shown) [Verbindung A]
Metastasenpunkte (B-16a Tumorzellen [3]; 0,05 mg/kg peroral): 5,3±1,5 | Metastasenpunkte (B-16a Tumorzellen [3]; 0,5 mg/kg peroral): 4,1±1,4 | Metastasenindex (B-16a Tumorzellen [3]; 0,05 mg/kg peroral): 0,76 | Metastasenindex (B-16a Tumorzellen [3]; 0,5 mg/kg peroral): 0,59 | Metastasenpunkte (B-16a Tumorzellen [3]; 0,005 mg/kg peroral): 2,6±1,1 | Metastasenpunkte (B-16a Tumorzellen [3]; 5 mg/kg peroral): 2,3±1,2 | Metastasenindex (B-16a Tumorzellen [3]; 0,005 mg/kg peroral): 0,37 | Metastasenindex (B-16a Tumorzellen [3]; 5 mg/kg peroral): 0,33 | Metastasenpunkte (B-16a-Zellen; [4]): 2,9±2,6 | Metastasenindex (B-16a-Zellen; [4]): 0,66 | Metastasenpunkte (B-16a-Zellen; [5]): 2,7±2,0 | Metastasenindex (B-16a-Zellen; [5]): 0,61 | Metastasenpunkte (B-16a-Zellen; [6]): 2,2±1,6 | Metastasenindex (B-16a-Zellen; [6]): 0,50 | Metastasenpunkte (B-16a-Zellen; [7]): 2,1±1,5 | Metastasenindex (B-16a-Zellen; [7]): 0,48 | Metastasenpunkte (B-16a-Zellen; [8]): 1,3±1,4 | Metastasenindex (B-16a-Zellen; [8]): 0,30 | Metastasenpunkte (B-16a-Zellen; [9]): 2,8±1,7 | Metastasenindex (B-16a-Zellen; [9]): 0,64

CC1=NN(CCOc2ccc3ccccc3c2)C(=O)C1C (stereo not shown) [3,4-Dimethyl-Derivat]
antithrombotischer Effekt [2]: kein antithrombotischer Effekt feststellbar

CC1=NN(CCOc2ccc3ccccc3c2)C(=O)C1(C)C [Verbindung B]
Metastasenpunkte (B-16a Tumorzellen [3]; 0,05 mg/kg peroral): 4,2±2,6 | Metastasenpunkte (B-16a Tumorzellen [3]; 0,5 mg/kg peroral): 2,6±0,8 | Metastasenindex (B-16a Tumorzellen [3]; 0,05 mg/kg peroral): 0,60 | Metastasenindex (B-16a Tumorzellen [3]; 0,5 mg/kg peroral): 0,37 | Metastasenpunkte (B-16a Tumorzellen [3]; 0,005 mg/kg peroral): 4,9±2,2 | Metastasenpunkte (B-16a Tumorzellen [3]; 5 mg/kg peroral): 4,5±2,3 | Metastasenindex (B-16a Tumorzellen [3]; 0,005 mg/kg peroral): 0.70 | Metastasenindex (B-16a Tumorzellen [3]; 5 mg/kg peroral): 0,64

CCCCCCCCCCCCCCCCCC1=NN(c2ccc(Oc3ccccc3)c(S(=O)(=O)O)c2)C(=O)C1 [Verbindung F]
Metastasenpunkte (B-16a Tumorzellen [1]; 2 mg/kg peroral daily): 2,8±1,0 | Metastasenindex (B-16a Tumorzellen [1]; 2 mg/kg peroral daily): 0,68 | Metastasenpunkte (B-16a Tumorzellen [1]; 20 mg/kg peroral daily): 3,0±1,1 | Metastasenindex (B-16a Tumorzellen [1]; 20 mg/kg peroral daily): 0,73 | Metastasenpunkte (B-16a Tumorzellen [1]; 200mg/kg peroral daily): 2,6±1,0 | Metastasenindex (B-16a Tumorzellen [1]; 200mg/kg peroral daily): 0,63

CCC1=NN(CCOc2ccc3ccccc3c2)C(=O)C1 [Ethyl in der 3-Position des Nafazatroms]
Wirkung bei der Thromboseprophylaxe ([2]; fraction of the effect of Nafazatrom): 1/30
